The text below walks through data of patent US4143032A, “Hexapeptides having analgesic activities” (American Home Products Corporation, priority 1977, dated 1979).

Non-standard residues stand in square brackets, D forms with d. Residues, ends and D or L forms follow the SMILES beside them.

Experiment [1] relates to rats. The experiment is described as follows: rat-tail flick method of D'Amour and Smith (analgesic activity). The conditions noted are these: single dose. The experiment is classed as in vivo. How it is done: In this procedure, a single intravenous dose of from 0.5 to 20 mg/kg., will produce analgesia in the rat. Preferably, a dose of from 1 to 10 mg/kg. is employed. The exact dose to be employed will vary depending on the particular compound employed and the degree of analgesia desired. The determination of the precise dose to produce the desired effect will be readily ascertained by those skilled in the art. With representative compound H-Arg-Tyr-D-Ala-Gly-Phe-D-Leu-NH2, the following results were obtained: […]

Experiment [2] concerns mouse vas deferens. The conditions noted are these: cited from earlier work.
Experiment [3] deals with guinea pig ileum. The conditions noted are these: cited from earlier work.
The subject of experiment [4] is rats. As to conditions: injection in the brain ventricle in rats; fully reversible by naloxone; cited from earlier work.
For experiment [5] the following is noted: peripheral administration, for example intravenous; cited from earlier work.
Experiment [6] has as its system opiate receptor. The conditions noted are these: brain homogenates; cited from earlier work.
For experiment [7] the following is noted: administered intracerebroventricularly; cited from earlier work.

On to `CC(=O)O.CC(=O)O.CC(C)C[C@@H](NC(=O)[C@H](Cc1ccccc1)NC(=O)CNC(=O)[C@@H](C)NC(=O)[C@H](Cc1ccc(O)cc1)NC(=O)[C@@H](N)CCCNC(=N)N)C(N)=O` [H-Arg-Tyr-D-Ala-Gly-Phe-D-Leu-NH2, L-Arginyl-L-Tyrosyl-D-Alanyl-Glycyl-L-Phenylalanyl-D-Leucyl Amide Diacetate] (H-RY[dA]GF[dL]-NH2), for which the “No. Showing Analgesic/No. Tested” value is given as 2/6 in experiment [1] (1.0 mg/kg. i.v.), 2/6 in experiment [1] (2.5 mg/kg. i.v.) and 6/6 in experiment [1] (5 mg/kg. i.v.).
Regarding “H-Tyr-Gly-Gly-Phe-Leu-OH [leucine-enkephalin]”, the “ability to block electrically evoked contractions” value in experiment [2] and in experiment [3] was “block electrically evoked contractions” each time. The analgesia entry in experiment [4] was “induce a profound analgesia”. Besides, the peripheral activity entry in experiment [5] is “inactive peripherally”. Further, in experiment [6], the “inhibition of stereospecific receptor binding of 3H-naloxone” value was “inhibit the stereospecific receptor binding”.
In the case of “H-Tyr-Gly-Gly-Phe-Met-OH [methionine-enkephalin]”, the “ability to block electrically evoked contractions” value in experiment [2] and in experiment [3] was “block electrically evoked contractions” in each case. Moreover, the analgesia entry in experiment [4] was “induce a profound analgesia”. For the same compound, the peripheral activity entry in experiment [5] was “inactive peripherally”. In addition, in experiment [6], the “inhibition of stereospecific receptor binding of 3H-naloxone” value was “inhibit the stereospecific receptor binding”.
Consider Tyr-D-Ala-Gly-Phe-D-Leu, for which, in experiment [7], the activity entry is given as “activity”.
